Reference: patent US10300058B2, “Tyrosine kinase inhibitor and uses thereof” (Xuanzhu Pharma Co., Ltd., priority 2014, dated 2019)

Experiments:
EGFR (d746-750) = EGFR (d746-750) (Homo sapiens (Human), UniProt P00533, DEL746-750); assay: Mobility Shift Assay, in vitro enzyme-inhibiting activity, EGFR (d746-750); format: biochemical; details: Table 7; for IC50: Km ATP; for Selectivity WT/d746-750: ratio of IC50
Procedure: (§1) 1. Preparation of Reagents
(§2) 2. Preparation of a Compound Solution
(§3) (1) To the second well of a 96-well plate, 5 μL 10 mM compound (dissolved in DMSO) was added, and 95 μL 100% DMSO was added to prepare 100 μL 0.5 mM compound.
(§4) (2) To other wells, 60 μL 100% DMSO was added. 20 μL compound from the second well was added to the third well, and 4-fold dilution was further performed to get 10 diluted concentrations.
(§5) (3) To the first well and the twelfth well of the 96-well plate, 100 μL 100% DMSO was separately added, and the two wells were used as control wells.
(§6) (4) 10 μL from each well of the 96-well plate was added to another 96-well plate, and 90 μL 1-fold kinase buffer was added.
(§7) (5) 5 μL from the 96-well plate was added to another 384-well plate, for example, transferred from A1 well of the 96-well plate to A1 and A2 wells of the 384-well plate, and transferred from A2 well of the 96-well plate to A3 and A4 wells of the 384-well plate, and so on.
(§8) To 384-well plate, 10 μL 2.5-fold enzyme solution was added, and incubated at room temperature for 10 min.
(§9) (5) Kinase reaction and stop
(§10) After incubation at 28° C. for a period of time (depending on kinase), 25 μL stop solution was added.
(§11) 4. Data on percent conversion was read by Caliper.
(§12) (1) Data on enzyme activity was obtained by Caliper program;
(§13) (2) Inhibition rate of enzyme activity was calculated from the data on enzyme activity by the following formula: Inhibition rate(%)=(maximal value−the measured value of a test compound)/(maximal value-minimal value)×100,
(§14) wherein, the maximal value represents the measured value of DMSO control; and the minimal value represents the measured value of blank control.
(§15) (3) Calculation of IC50 value by XLFit excel.

wild-type EGFR (WT EGFR) = wild-type EGFR (WT EGFR) (Homo sapiens (Human), UniProt P00533); assay: Mobility Shift Assay, in vitro enzyme-inhibiting activity, wild-type EGFR; format: biochemical; details: Km ATP
Procedure: as §1, §2, §3, §4, §5, §6, §7, §8, §9, §10, §11, §12, §13, §14, §15

EGFR T790M = EGFR T790M (Homo sapiens (Human), UniProt P00533, T790M); assay: Mobility Shift Assay, in vitro enzyme-inhibiting activity, EGFR T790M; format: biochemical; details: for IC50: Km ATP; for Selectivity (WT/T790M): ratio of IC50
Procedure: as §1, §2, §3, §4, §5, §6, §7, §8, §9, §10, §11, §12, §13, §14, §15

EGFR T790M-L858R = EGFR T790M-L858R (Homo sapiens (Human), UniProt P00533, L858R/T790M); assay: Mobility Shift Assay, in vitro enzyme-inhibiting activity, EGFR T790M-L858R; format: biochemical; details: Table 7; for IC50: Km ATP; for Selectivity WT/T790M-L858R: ratio of IC50
Procedure: as §1, §2, §3, §4, §5, §6, §7, §8, §9, §10, §11, §12, §13, §14, §15

EGFR L858R = EGFR L858R (Homo sapiens (Human), UniProt P00533, L858R); assay: Mobility Shift Assay, in vitro enzyme-inhibiting activity, EGFR L858R; format: biochemical; details: Table 7; for IC50: Km ATP; for Selectivity WT/L858R: ratio of IC50
Procedure: as §1, §2, §3, §4, §5, §6, §7, §8, §9, §10, §11, §12, §13, §14, §15

[1] = system: A431 cell (wild-type EGFR gene); assay: In vitro cytologic activity, Celltiter-Glo, A431 cells; format: cell-based; details: Homo sapiens, A-431, 72 h, Table 10, unit inferred
Procedure: (§16) 1.1 Preparation of Cell Suspension
(§17) Culture medium was removed from culture bottle;
(§18) PBS was added to wash the cells; • pancreatin was added for digestion, and the cells were collected by centrifugation; • the cells were resuspended in a culture medium containing 10% fetal bovine serum, counted and adjusted to a concentration of 2×10^4/mL or 3×10^4/mL (cell viability must be greater than 90%); • the cell suspension was added to a 96-well plate, at 100 μL for each well, i.e., 2000/well for H1975 cell; 3000/well for A431 cell; and • the cells were cultured at 37° C. in 5% CO2 incubator overnight.
(§19) Dilution of a compound in DMSO (or water for injection) • (1) The compound was 5-fold diluted with DMSO from 10 mM to 2 mM, and then 4-fold diluted from 2 mM, to get 10 concentrations; • High control (HC, control without compound inhibition): 0.5% DMSO; • Low control (LC, control with compound inhibition): 1000 nM.
(§20) i. To each well, 99 μL growth medium containing 10% FBS was added, and then 1 μL diluted compound was added, the total volume of the well was […], and the final concentration of the compound was measured.
(§21) The test plate was left at room temperature, and equilibrated for 30 min. 80 μL culture medium was discarded. 60 μL CTG reagent (Celltiter-Glo kit) was added, and shaked for 2 min in a fast shaker, and was placed at room temperature for 10 min. The values were read by Envision instrument.

[2] = system: H1975 cell (EGFR-T790M/L858R double mutation); assay: In vitro cytologic activity, Celltiter-Glo, H1975 cells; format: cell-based, human; details: Table 10; for IC50: Homo sapiens, NCI-H1975, 72 h, 72 h, Celltiter-Glo, unit inferred; for Selectivity (A431/H1975): ratio of IC50
Procedure: as §16, §17, §18, §19, §20, §21

EGFR (d746-750), sequence (P00533 other isoform, or with tags, fused parts or gaps del 1-668/del 746-750 limits assumed): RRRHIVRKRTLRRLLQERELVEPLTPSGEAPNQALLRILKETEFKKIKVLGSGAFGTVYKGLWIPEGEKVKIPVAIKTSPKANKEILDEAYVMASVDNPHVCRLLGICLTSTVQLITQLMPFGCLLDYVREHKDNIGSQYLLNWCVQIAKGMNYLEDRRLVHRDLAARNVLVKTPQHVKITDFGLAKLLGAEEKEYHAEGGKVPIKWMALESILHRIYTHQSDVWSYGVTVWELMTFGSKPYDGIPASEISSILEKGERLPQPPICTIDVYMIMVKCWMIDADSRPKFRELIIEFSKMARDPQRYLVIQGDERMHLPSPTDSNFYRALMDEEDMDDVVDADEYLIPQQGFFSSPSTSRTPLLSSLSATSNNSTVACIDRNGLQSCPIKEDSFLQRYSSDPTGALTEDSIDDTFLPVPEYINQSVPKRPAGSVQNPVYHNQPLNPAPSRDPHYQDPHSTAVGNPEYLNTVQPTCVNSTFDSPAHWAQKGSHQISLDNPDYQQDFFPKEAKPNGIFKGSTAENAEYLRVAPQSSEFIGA
EGFR T790M, sequence (P00533 25-1210 T790M): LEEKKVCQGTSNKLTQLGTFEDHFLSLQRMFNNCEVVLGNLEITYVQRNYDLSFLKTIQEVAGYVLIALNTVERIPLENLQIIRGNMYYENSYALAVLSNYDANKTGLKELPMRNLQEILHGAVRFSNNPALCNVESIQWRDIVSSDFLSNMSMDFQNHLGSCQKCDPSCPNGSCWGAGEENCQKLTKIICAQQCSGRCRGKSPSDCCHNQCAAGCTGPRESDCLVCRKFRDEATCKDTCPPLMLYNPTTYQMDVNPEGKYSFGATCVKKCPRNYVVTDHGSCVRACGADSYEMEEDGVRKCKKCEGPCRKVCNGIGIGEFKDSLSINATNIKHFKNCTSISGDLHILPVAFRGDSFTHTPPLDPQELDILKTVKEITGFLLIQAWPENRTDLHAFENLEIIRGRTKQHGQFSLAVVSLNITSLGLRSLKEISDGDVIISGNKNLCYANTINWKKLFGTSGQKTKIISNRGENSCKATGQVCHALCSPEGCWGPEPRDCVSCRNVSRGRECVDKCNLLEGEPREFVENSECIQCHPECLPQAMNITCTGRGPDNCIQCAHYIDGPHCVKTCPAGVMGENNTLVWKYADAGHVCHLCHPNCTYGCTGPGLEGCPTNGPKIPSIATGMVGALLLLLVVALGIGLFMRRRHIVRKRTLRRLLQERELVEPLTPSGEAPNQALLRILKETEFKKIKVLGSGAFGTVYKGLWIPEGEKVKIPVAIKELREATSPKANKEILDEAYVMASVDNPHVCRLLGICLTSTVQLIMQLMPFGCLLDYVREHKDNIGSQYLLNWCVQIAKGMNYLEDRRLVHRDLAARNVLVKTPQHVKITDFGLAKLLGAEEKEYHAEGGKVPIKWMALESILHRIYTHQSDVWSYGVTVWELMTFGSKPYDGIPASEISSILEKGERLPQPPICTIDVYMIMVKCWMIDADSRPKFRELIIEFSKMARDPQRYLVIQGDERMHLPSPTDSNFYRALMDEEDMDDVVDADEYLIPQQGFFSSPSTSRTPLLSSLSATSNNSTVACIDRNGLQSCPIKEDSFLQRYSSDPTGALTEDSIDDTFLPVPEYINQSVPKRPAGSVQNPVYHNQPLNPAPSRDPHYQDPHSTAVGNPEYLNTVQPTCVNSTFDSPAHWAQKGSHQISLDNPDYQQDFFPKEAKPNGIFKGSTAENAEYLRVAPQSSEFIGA
EGFR T790M-L858R, sequence (P00533 25-1210 T790M/L858R): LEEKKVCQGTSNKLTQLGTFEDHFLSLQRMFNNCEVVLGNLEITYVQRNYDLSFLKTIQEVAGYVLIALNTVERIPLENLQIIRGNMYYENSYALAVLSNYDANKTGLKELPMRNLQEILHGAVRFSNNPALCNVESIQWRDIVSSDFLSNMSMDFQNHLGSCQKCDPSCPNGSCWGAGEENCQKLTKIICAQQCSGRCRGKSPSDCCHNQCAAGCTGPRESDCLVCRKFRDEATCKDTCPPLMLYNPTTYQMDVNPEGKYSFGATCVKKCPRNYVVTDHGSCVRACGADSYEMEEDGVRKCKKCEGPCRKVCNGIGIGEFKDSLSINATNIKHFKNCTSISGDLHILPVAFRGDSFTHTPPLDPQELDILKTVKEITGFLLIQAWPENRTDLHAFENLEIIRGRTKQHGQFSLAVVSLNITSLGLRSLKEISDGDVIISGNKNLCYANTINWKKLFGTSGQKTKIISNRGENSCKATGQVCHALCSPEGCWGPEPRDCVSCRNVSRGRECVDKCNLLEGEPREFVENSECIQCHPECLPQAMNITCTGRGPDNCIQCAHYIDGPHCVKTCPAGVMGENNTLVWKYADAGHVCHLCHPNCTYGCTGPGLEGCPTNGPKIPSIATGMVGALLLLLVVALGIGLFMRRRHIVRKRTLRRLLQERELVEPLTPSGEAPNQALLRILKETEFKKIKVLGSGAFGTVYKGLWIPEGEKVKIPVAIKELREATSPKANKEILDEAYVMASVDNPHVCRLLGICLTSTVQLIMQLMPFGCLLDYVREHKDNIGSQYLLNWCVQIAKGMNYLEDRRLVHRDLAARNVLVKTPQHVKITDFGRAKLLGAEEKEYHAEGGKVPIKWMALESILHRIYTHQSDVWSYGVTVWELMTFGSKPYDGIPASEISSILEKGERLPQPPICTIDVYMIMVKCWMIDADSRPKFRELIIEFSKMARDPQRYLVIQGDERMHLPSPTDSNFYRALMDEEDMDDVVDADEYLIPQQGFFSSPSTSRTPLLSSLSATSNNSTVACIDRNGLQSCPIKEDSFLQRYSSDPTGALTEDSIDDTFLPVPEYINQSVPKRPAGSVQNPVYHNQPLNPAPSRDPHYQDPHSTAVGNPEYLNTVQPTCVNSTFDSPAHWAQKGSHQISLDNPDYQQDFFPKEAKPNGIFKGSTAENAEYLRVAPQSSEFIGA
wild-type EGFR (WT EGFR), sequence (P00533 25-1210): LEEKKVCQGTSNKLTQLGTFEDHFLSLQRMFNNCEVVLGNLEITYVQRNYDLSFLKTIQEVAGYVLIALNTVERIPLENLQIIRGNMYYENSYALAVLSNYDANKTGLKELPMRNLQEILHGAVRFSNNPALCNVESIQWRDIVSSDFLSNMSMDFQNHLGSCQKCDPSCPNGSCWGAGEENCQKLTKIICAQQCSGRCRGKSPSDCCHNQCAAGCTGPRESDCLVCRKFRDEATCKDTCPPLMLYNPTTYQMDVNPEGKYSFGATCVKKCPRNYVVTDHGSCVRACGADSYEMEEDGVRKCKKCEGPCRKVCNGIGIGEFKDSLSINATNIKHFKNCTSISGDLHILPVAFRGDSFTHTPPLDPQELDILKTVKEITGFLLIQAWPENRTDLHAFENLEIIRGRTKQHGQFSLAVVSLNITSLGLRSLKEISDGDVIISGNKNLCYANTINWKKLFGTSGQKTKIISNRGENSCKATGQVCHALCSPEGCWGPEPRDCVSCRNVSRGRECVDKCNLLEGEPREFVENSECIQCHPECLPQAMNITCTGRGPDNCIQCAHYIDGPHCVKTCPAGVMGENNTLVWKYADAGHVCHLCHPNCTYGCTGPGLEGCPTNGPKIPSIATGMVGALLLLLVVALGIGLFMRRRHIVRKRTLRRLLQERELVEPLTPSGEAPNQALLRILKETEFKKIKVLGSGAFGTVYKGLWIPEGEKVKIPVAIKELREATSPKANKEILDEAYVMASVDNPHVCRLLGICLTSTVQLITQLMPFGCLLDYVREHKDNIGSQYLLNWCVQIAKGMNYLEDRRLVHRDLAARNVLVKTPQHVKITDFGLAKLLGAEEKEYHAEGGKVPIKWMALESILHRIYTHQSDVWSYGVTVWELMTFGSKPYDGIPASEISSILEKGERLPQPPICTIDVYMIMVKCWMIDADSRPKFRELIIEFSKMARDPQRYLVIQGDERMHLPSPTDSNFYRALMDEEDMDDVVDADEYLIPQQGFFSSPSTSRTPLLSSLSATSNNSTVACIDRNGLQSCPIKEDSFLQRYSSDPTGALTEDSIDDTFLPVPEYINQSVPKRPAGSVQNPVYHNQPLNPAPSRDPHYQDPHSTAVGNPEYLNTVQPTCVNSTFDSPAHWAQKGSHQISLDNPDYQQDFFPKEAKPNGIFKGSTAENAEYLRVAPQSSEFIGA

`C=CC(=O)Nc1cccc(Nc2nc(Nc3ccc(C4CCN(C(=O)CC)CC4)cc3OC)ncc2C(F)(F)F)c1` [Compound 24, N-(3-((2-((2-methoxy-4-(1-propionylpiperidin-4-yl)phenyl)amino)-5-(trifluoromethyl)pyrimidin-4-yl)amino)phenyl)acrylamide] was tested, and the IC50 (EGFR (d746-750)) was 91.7 nM, the “Selectivity WT/d746-750” value (EGFR (d746-750)) was 7.3 and the IC50 (wild-type EGFR (WT EGFR); Table 7) was 666 nM. For the same molecule, the IC50 (EGFR T790M; Table 7) was 9.1 nM, the “Selectivity (WT/T790M)” value (EGFR T790M; Table 7) was 73.2 and the IC50 (EGFR T790M-L858R) was 10.2 nM. The “Selectivity WT/T790M-L858R” value (EGFR T790M-L858R) was 65.4, the IC50 (EGFR L858R) was 109 nM and the “Selectivity WT/L858R” value (EGFR L858R) was 6.1.
In the case of `C=CC(=O)Nc1cccc(Nc2nc(Nc3ccc(OC)c4c3CN(C(C)=O)C4)ncc2C(F)(F)F)c1` [Compound 36, N-(3-((2-((2-acetyl-7-methoxyisoindolin-4-yl)amino)-5-(trifluoromethyl)pyrimidin-4-yl)amino)phenyl)acrylamide], the IC50 [1] is reported as 7000 nM, the IC50 [2] is reported as 326 nM and the “Selectivity (A431/H1975)” value [2] is reported as 21.5.
With `C=CC(=O)Nc1cccc(Nc2nc(Nc3ccc(C4CCN(CCF)C(=O)C4)cc3OC)ncc2C(F)(F)F)c1` (stereo not drawn) [Compound 23, N-(3-((2-((4-(1-(2-fluoroethyl)-2-oxopiperidin-4-yl)-2-methoxyphenyl)amino)-5-(trifluoromethyl)pyrimidin-4-yl)amino)phenyl)acrylamide] the IC50 (wild-type EGFR (WT EGFR); Table 4, unit inferred) was 294 nM, the IC50 (EGFR T790M; Table 4, unit inferred) was 3.9 nM and the “Selectivity (WT/T790M)” value (EGFR T790M; Table 4) was 75.4.
`C=CC(=O)Nc1cccc(Nc2nc(Nc3ccc(OC)c4c3CCN(C(C)=O)C4)ncc2C(F)(F)F)c1` [Compound 35, N-(3-((2-((2-acetyl-8-methoxy-1,2,3,4-tetrahydroisoquinoline-5-yl)amino)-5-(trifluoromethyl)pyrimidin-4-yl)amino)phenyl)acrylamide] was tested, and the IC50 [1] was 3600 nM, the IC50 [2] was 266 nM and the “Selectivity (A431/H1975)” value [2] was 13.5.
With `C=CC(=O)Nc1cccc(Nc2nc(Nc3cccc4c3CCN(C(C)=O)C4)ncc2C(F)(F)F)c1` [Compound 37, N-(3-((2-((2-acetyl-1,2,3,4-tetrahydroisoquinoline-5-yl)amino)-5-(trifluoromethyl)pyrimidin-4-yl)amino)phenyl)acrylamide] the IC50 (wild-type EGFR (WT EGFR); Table 4, unit inferred) was 1280 nM, the IC50 (EGFR T790M; Table 4, unit inferred) was 9.9 nM and the “Selectivity (WT/T790M)” value (EGFR T790M; Table 4) was 129.7.
For `C=CC(=O)Nc1cccc(Nc2nc(Nc3ccc(C4CCNC(=O)C4)cc3OC)ncc2C(F)(F)F)c1` (stereo not drawn) [Compound 22, N-(3-((2-((2-methoxy-4-(2-oxopiperidin-4-yl)phenyl)amino)-5-(trifluoromethyl)pyrimidin-4-yl)amino)phenyl)acrylamide], the IC50 (EGFR (d746-750)) was 28.3 nM, the “Selectivity WT/d746-750” value (EGFR (d746-750)) was 6.4 and the IC50 (wild-type EGFR (WT EGFR); Table 7) was 181 nM. The IC50 (EGFR T790M; Table 7) was 2.7 nM, the “Selectivity (WT/T790M)” value (EGFR T790M; Table 7) was 67.2 and the IC50 (EGFR T790M-L858R) was 4.06 nM. For the same molecule, the “Selectivity WT/T790M-L858R” value (EGFR T790M-L858R) was 44.6, the IC50 (EGFR L858R) was 28.2 nM and the “Selectivity WT/L858R” value (EGFR L858R) was 6.4.
In the case of `C=CC(=O)Nc1cccc(Nc2nc(Nc3ccc4c(c3OC)CN(C(C)=O)CC4)ncc2C(F)(F)F)c1` [Compound 17, N-(3-((2-((2-acetyl-8-methoxy-1,2,3,4-tetrahydroisoquinoline-7-yl)amino)-5-(trifluoromethyl)pyrimidin-4-yl)amino)phenyl)acrylamide], the IC50 (wild-type EGFR (WT EGFR); Table 4, unit inferred) is reported as 1370 nM, the IC50 (EGFR T790M; Table 4, unit inferred) is reported as 16 nM and the “Selectivity (WT/T790M)” value (EGFR T790M; Table 4) is reported as 85.6.
